# From patent publication US10513559B2, “Amatoxin-armed therapeutic cell surface binding components designed for tumour therapy” (Deutsches Krebsforschungszentrum, priority 2009, dated 2019)
# How the values were obtained:
# MCF-7 cells = experiment: proliferation assay, [3H]-thymidine incorporation, MCF-7; format: cell-based, human; settings: 72 or 96 h, amanitin concentration, read-out: IC50 of inhibition of cell proliferation
# Experimental: Inhibition of cell growth by amanitin-IgG conjugates was determined by incorporation of [^3H]-thymidine. Serial dilutions of amanitin-huHEA125 and amanitin in complete medium (RPMI 1640 supplemented with 10% heat-inactivated FCS, 2 mM L-glutamine and 1 mM sodium pyruvate) ranging from 2×10^−5 M to 6×10^−13 M were prepared in triplicates in a volume of 100 μl in the wells of a 96 well flat-bottom tissue culture microtiter plate. […] Plates were incubated in a humidified atmosphere at 37° C. and 5% CO2 for 72 or 96 h. At 20 h before the end of the assay, 1 μCi of [^3H]-thymidine was added. Subsequently, plates were processed with a Tomtec cell harvester and the incorporated radioactivity was determined by liquid scintillation counting (Wallac Betaplate Liquid Scintillation Counter, PerkinElmer Life and Analytical Sciences) and given as cpm.
# Three examples of growth inhibition induced by different amanitin-IgG conjugates are depicted in FIGS. 5, 6, and 9. In all three experiments MCF-7 cells were used. […] In the experiment outlined in FIG. 6 huHEA125-Amanitin4 was compared with an alpha-phalloidin huHEA125 conjugate and with free Amanitin.
# [1] = test system: MCF-7 breast cancer cells; experiment: binding of conjugates to MCF-7 cells by flow cytometry; set-up: species or system human; settings: 1 μg/ml, 1 h on ice; FITC-labeled secondary antibody; identical antibody amounts
# Experimental: The abbreviation FL1-H stands for “fluorescence 1 height” which means the intensity of fluorescence 1, i.e. the green channel for FITC.
# Binding of huHEA125-amanitin and huHEA125-phalloidin conjugates versus non-conjugated huHEA125 antibody was analyzed by flow cytometry. MCF-7 target cells were washed twice in FACS buffer (Dulbecco's PBS with 1% heat-inactivated fetal calf serum and 0.1% sodium azide) counted and adjusted to 2×10^7 cells per ml. Fifty μl of cell suspension was given to each well of a 96 well U-bottom microtiter plate. Immunotoxins huHEA125-amanitin1, huHEA125-amanitin4 and huHEA125-phalloidin as well as unconjugated huHEA125 antibody were added at a concentration of 1 μg/ml in a volume of 100 μl per well and incubated for 1 h on ice. The plate was centrifuged (2 min at 2000 rpm) and the supernatant was removed from the cells. Cells were re-suspended in 150 μl of FACS buffer and centrifuged again. Subsequently, 100 μl of FITC-labeled F(ab′)2 goat anti-human IgG (H+L) secondary antibody was added per well and incubated again for 1 h on ice. After two washing steps by centrifugation, cells were taken up in 100 μl/well of propidium iodide solution (1 μg/ml in FACS buffer) allowing discrimination of dead cells. Analysis was performed on a FACScan cytometer (Becton and Dickinson, Heidelberg, Germany) using CellQuest software.
Substance,IC50 (MCF-7 cells) [nM],mean fluorescence intensity (MFI) [1]
Amanitin [reference compound],~100,–
"huHEA125: chimeric anti-EpCAM antibody: mouse HEA125 variable domains, human kappa light and IgG1 heavy constant chains (SEQ ID NO: 1/2, 11)",–,1094
α-Amanitin-glutarate-huHEA125 [huHEA125-Amanitin3],~0.002,–
